This note sets out measurements from patent publication US6465482B2, “Arylpiperazinyl-cyclohexyl indole derivatives for the treatment of depression” (Wyeth, priority 1999, dated 2002).

Counter-ions that a name gives are not always drawn.

As to `Fc1cccc2[nH]cc([C@H]3CC[C@@H](N4CCN(c5cccc6[nH]ccc56)CC4)CC3)c12` (as salt: HCl) (hydrate or solvate) [Example 2a, 4-Fluoro-3-[cis-4-[4-(1H-indol-4-yl)-1-piperazinyl]cyclohexyl]-1H-indole], the melting point was in the range of 283 to 285 °C.
`Clc1ccc2[nH]cc([C@H]3CC[C@@H](N4CCN(c5cccc6[nH]ccc56)CC4)CC3)c2c1` (as salt: HCl) (hydrate or solvate) [Example 6a, 5-Chloro-3-[cis-4-[4-(1H-indol-4-yl)-1-piperazinyl]cyclohexyl]-1H-indole] came in with a melting point of 283 to 285 °C.
With `Clc1ccc2[nH]cc([C@H]3CC[C@H](N4CCN(c5cccc6[nH]ccc56)CC4)CC3)c2c1` (as salt: HCl) (hydrate or solvate) [Example 6b, 5-Chloro-3-[trans-4-[4-(1H-indol-4-yl)-1-piperazinyl]cyclohexyl]-1H-indole] the figure was 314 to 315.5 °C; with `COc1ccc2[nH]cc([C@H]3CC[C@@H](N4CCN(c5cccc6[nH]ccc56)CC4)CC3)c2c1` (as salt: HCl) (hydrate or solvate) [Example 8a, 5-Methoxy-3-[cis-4-[4-(1H-indol-4-yl)-1-piperazinyl]cyclohexyl]-1H-indole], 283 to 285 °C.
Take `COc1ccc2[nH]cc([C@H]3CC[C@H](N4CCN(c5cccc6[nH]ccc56)CC4)CC3)c2c1` (as salt: HCl) (hydrate or solvate) [Example 8b, 5-Methoxy-3-[trans-4-[4-(1H-indol-4-yl)-1-piperazinyl]cyclohexyl]-1H-indole]: the melting point fell in the range of 194 to 196 °C.
On to `Cn1ccc2c(N3CCN([C@H]4CC[C@@H](c5cn(C)c6cc(F)ccc65)CC4)CC3)cccc21` (as salt: HCl) (hydrate or solvate) [Example 11, 6-Fluoro-1-methyl-3-{cis-4-[4-(1-methyl-1H-indol-4-yl)-1-piperazinyl]cyclohexyl}-1H-indole], for which the melting point lay in the range of 253 to 254 °C.
`Cn1cc([C@H]2CC[C@@H](N3CCN(c4cccc5[nH]ccc45)CC3)CC2)c2cc(C#N)ccc21` (as salt: HCl) (hydrate or solvate) [Example 12a, 3-{(1,4-cis)-4-[4-(1H-indol-4-yl)-piperazin-1-yl]-cyclohexyl}-1-methyl-1H-indole-5-carbonitrile] gave a melting point of 285.5 to 288 °C.
With `Cn1cc([C@H]2CC[C@H](N3CCN(c4cccc5[nH]ccc45)CC3)CC2)c2cc(C#N)ccc21` (as salt: HCl) (hydrate or solvate) [Example 12b, 3-{(1,4-trans)-4-[4-(1H-indol-4-yl)-piperazin-1-yl]-cyclohexyl}-1-methyl-1H-indole-5-carbonitrile], the melting point fell in the range of 286 to 288 °C.
`CCn1cc([C@H]2CC[C@@H](N3CCN(c4cccc5[nH]ccc45)CC3)CC2)c2cc(C#N)ccc21` (as salt: HCl) (hydrate or solvate) [Example 13a, 1-Ethyl-3-{(1,4-cis)-4-[4-(1H-indol-4-yl)-piperazin-1-yl]-cyclohexyl}-1H-indole-5-carbonitrile] showed a melting point of 245 °C.
The compound `CCCn1cc([C@H]2CC[C@@H](N3CCN(c4cccc5[nH]ccc45)CC3)CC2)c2cc(C#N)ccc21` (as salt: HCl) (hydrate or solvate) [Example 14a, 3-{(1,4-cis)-4-[4-(1H-Indol-4-yl)-piperazin-1-yl]-cyclohexyl}-1-propyl-1H-indole-5-carbonitrile] displayed a melting point of 200 to 206 °C.
`CC(C)n1cc([C@H]2CC[C@@H](N3CCN(c4cccc5[nH]ccc45)CC3)CC2)c2cc(C#N)ccc21` (as salt: HCl) (hydrate or solvate) [Example 15a, 3-{(1,4-cis)-4-[4-(1H-indol-4-yl)-piperazin-1-yl]-cyclohexyl}-1-isopropyl-1H-indole-5-carbonitrile]: the melting point is 285 to 286 °C.
`Cn1cc([C@H]2CC[C@@H](N3CCN(c4cccc5cccnc45)CC3)CC2)c2cc(F)ccc21` (as salt: HCl) (hydrate or solvate) [Example 28, 8-{4-(1,4-cis)-4-[4-(5-Fluoro-1-methyl-1H-indol-3-yl)-cyclohexyl]-piperazin-1-yl}-quinoline] showed a melting point of 261 to 263.5 °C.
On to `Fc1cc2c(c(N3CCN([C@H]4CC[C@H](c5c[nH]c6ccc(F)cc65)CC4)CC3)c1)OCCC2` (as salt: HCl) (hydrate or solvate) [Example 31b, 5-Fluoro-3-{(1,4-trans)-4-[4-(6-fluoro-chroman-8-yl)-piperazin-1-yl]-cyclohexyl}-1H-indole], for which the melting point was 286 to 288 °C.
Compound `Fc1cc2c(c(N3CCN([C@H]4CC[C@@H](c5c[nH]c6ccc(F)cc65)CC4)CC3)c1)OCC2` (as salt: HCl) (hydrate or solvate) [Example 32a, 5-Fluoro-3-{(1,4-cis)-4-[4-(5-fluoro-2,3-dihydro-benzofuran-7-yl)-piperazin-1-yl]-cyclohexyl}-1H-indole] registered a melting point of 196 to 198 °C.
Take `Fc1cc2c(c(N3CCN([C@H]4CC[C@H](c5c[nH]c6ccc(F)cc65)CC4)CC3)c1)OCC2` (as salt: HCl) (hydrate or solvate) [Example 32b, 5-Fluoro-3-{(1,4-trans)-4-[4-(5-fluoro-2,3-dihydro-benzofuran-7-yl)-piperazin-1-yl]-cyclohexyl}-1H-indole]: the melting point lay in the range of 303 to 305 °C.
In turn, `N#Cc1ccc2[nH]cc([C@H]3CC[C@@H](N4CCN(c5cc(F)cc6c5OCC6)CC4)CC3)c2c1` (as salt: HCl) (hydrate or solvate) [Example 33a, 3-{(1,4-cis)-4-[4-(5-Fluoro-2,3-dihydro-benzofuran-7-yl)-piperazin-1-yl]-cyclohexyl}-1H-indole-5-carbonitrile] returned a melting point of 298 to 301 °C.
For the compound `N#Cc1ccc2[nH]cc([C@H]3CC[C@H](N4CCN(c5cc(F)cc6c5OCC6)CC4)CC3)c2c1` (as salt: HCl) (hydrate or solvate) [Example 33b, 3-{(1,4-trans)-4-[4-(5-Fluoro-2,3-dihydro-benzofuran-7-yl)-piperazin-1-yl]-cyclohexyl}-1H-indole-5-carbonitrile], the melting point lay in the range of 330 to 331 °C.
With `N#Cc1ccc2[nH]cc([C@H]3CC[C@@H](N4CCN(c5cccc6ccoc56)CC4)CC3)c2c1` (as salt: HCl) (hydrate or solvate) [Example 34a] the figure was 295 to 296 °C.
Compound `N#Cc1ccc2[nH]cc([C@H]3CC[C@H](N4CCN(c5cccc6ccoc56)CC4)CC3)c2c1` (as salt: HCl) (hydrate or solvate) [Example 34b] registered a melting point of 330 to 331 °C.
Compound `c1cc(N2CCN([C@H]3CC[C@@H](c4c[nH]c5ccccc54)CC3)CC2)c2cc[nH]c2c1` (as salt: HCl) [Example 1a, 3-[cis-4-[4-(1H-Indol-4-yl)-1-piperazinyl]cyclohexyl]-1H-indole] had a melting point of 198 to 200 °C.
Take `c1cc(N2CCN([C@H]3CC[C@H](c4c[nH]c5ccccc54)CC3)CC2)c2cc[nH]c2c1` (as salt: HCl) [Example 1b, 3-[trans-4-[4-(1H-Indol-4-yl)-1-piperazinyl]cyclohexyl]-1H-indole]: the melting point is 305 °C (dec.).
Compound `Fc1ccc2[nH]cc([C@H]3CC[C@@H](N4CCN(c5cccc6[nH]ccc56)CC4)CC3)c2c1` (as salt: HCl) [Example 3a, 5-Fluoro-3-[cis-4-[4-(1H-indol-4-yl)-1-piperazinyl]cyclohexyl]-1H-indole] came in with a melting point of 215 to 217 °C.
Take `Fc1ccc2[nH]cc([C@H]3CC[C@H](N4CCN(c5cccc6[nH]ccc56)CC4)CC3)c2c1` (as salt: HCl) [Example 3b, 5-Fluoro-3-[trans-4-[4-(1H-indol-4-yl)-1-piperazinyl]cyclohexyl]-1H-indole]: the melting point is 280 °C (dec.).
For `Fc1ccc2c(c1)[nH]cc2[C@H]1CC[C@@H](N2CCN(c3cccc4[nH]ccc34)CC2)CC1` (as salt: HCl) [Example 4a, 6-Fluoro-3-[cis-4-[4-(1H-indol-4-yl)-1-piperazinyl]cyclohexyl]-1H-indole], the melting point was 250 to 252 °C (dec.).
On to `Fc1ccc2c(c1)[nH]cc2[C@H]1CC[C@H](N2CCN(c3cccc4[nH]ccc34)CC2)CC1` (as salt: HCl) [Example 4b, 6-Fluoro-3-[trans-4-[4-(1H-indol-4-yl)-1-piperazinyl]cyclohexyl]-1H-indole], for which the melting point was 319 to 320 °C (dec.).
The figure for `Brc1ccc2[nH]cc([C@H]3CC[C@@H](N4CCN(c5cccc6[nH]ccc56)CC4)CC3)c2c1` (as salt: HCl) [Example 5a, 5-Bromo-3-[cis-4-[4-(1H-indol-4-yl)-1-piperazinyl]cyclohexyl]-1H-indole] is 276 °C; for `Brc1ccc2[nH]cc([C@H]3CC[C@H](N4CCN(c5cccc6[nH]ccc56)CC4)CC3)c2c1` (as salt: HCl) [Example 5b, 5-Bromo-3-[trans-4-[4-(1H-indol-4-yl)-1-piperazinyl]cyclohexyl]-1H-indole] it is more than 300 °C; for `N#Cc1ccc2[nH]cc([C@H]3CC[C@@H](N4CCN(c5cccc6[nH]ccc56)CC4)CC3)c2c1` (as salt: HCl) [Example 7a, 3-{4-[(1,4-cis)-4-(1H-Indol-4-yl)-piperazinyl-1-yl]cyclohexyl}-1H-indole-5-carbonitrile] it is 216 to 218 °C.
With `N#Cc1ccc2[nH]cc([C@H]3CC[C@H](N4CCN(c5cccc6[nH]ccc56)CC4)CC3)c2c1` (as salt: HCl) [Example 7b, 3-{4-[(1,4-trans)-4-(1H-Indol-4-yl)-piperazinyl-1-yl]cyclohexyl}-1H-indole-5-carbonitrile] the figure was more than 310 °C; with `Cc1[nH]c2ccccc2c1[C@H]1CC[C@H](N2CCN(c3cccc4[nH]ccc34)CC2)CC1` (as salt: HCl) [Example 9b, 3-[trans-4-[4-(1H-Indol-4-yl)-1-piperazinyl]cyclohexyl]-2-methyl-1H-indole], more than 310 °C; with `c1cc(N2CCN([C@H]3CC[C@@H](c4c[nH]c5ncccc54)CC3)CC2)c2cc[nH]c2c1` (as salt: HCl) [Example 10a, 3-{(1,4-cis)-4-[4-(1H-Indole-4-yl)-piperazin-1-yl]-cyclohexyl}-1H-pyrrolo[2,3-b]pyridine], > 250 °C (dec.).
